Measured values published in ChEMBL document CHEMBL1124865, “Synthesis and biological evaluation of a series of parenteral 3'-quaternary ammonium cephalosporins” (J Med Chem, 1990).
Values after ≈ are worked out from the molar mass of the structure shown.

Columns and labels:
Type in all cases: functional
[1] = tested on: Enterobacter cloacae; test: Antibacterial activity against Enterobacter cloacae 265A
[2] = tested on: Escherichia coli; test: Antibacterial activity against Escherichia coli EC14
[3] = tested on: Enterobacter cloacae; test: Antibacterial activity against Enterobacter cloacae EB5
[4] = tested on: Escherichia coli; test: Antibacterial activity against Escherichia coli TEM
[5] = tested on: Klebsiella pneumoniae; test: microbe, parasite or virus in culture
Description: Antibacterial activity against Klebsiella pneumoniae 1082E

[6] = tested on: Klebsiella pneumoniae; test: Antibacterial activity against Klebsiella pneumoniae X26
[7] = tested on: Pseudomonas aeruginosa; test: In vivo efficacy against Pseudomonas aeruginosa infected mice treated at 1 hr and 5 hr post infection
[8] = tested on: Staphylococcus aureus; test: In vivo efficacy against Staphylococcus aureus infected mice treated at 1 hr and 5 hr post infection
[9] = tested on: Escherichia coli; test: In vivo efficacy against Escherichia coli infected mice treated at 1 hr and 5 hr post infection
[10] = tested on: Escherichia coli; test: In vivo efficacy against Escherichia coli infections in mice; conditions: Escherichia coli; read-out: MIC
[11] = tested on: Pseudomonas aeruginosa; test: In vivo efficacy against Pseudomonas aeruginosa infections in mice
[12] = tested on: Staphylococcus aureus; test: In vivo efficacy against Staphylococcus aureus infections in mice
[13] = tested on: Pseudomonas aeruginosa; test: Antibacterial activity against Pseudomonas aeruginosa X528
[14] = tested on: Pseudomonas aeruginosa; test: Antibacterial activity against Pseudomonas aeruginosa PS18
[15] = tested on: Staphylococcus aureus; test: Antibacterial activity against penicillin G resistance Staphylococcus aureus
[16] = tested on: Staphylococcus aureus; test: Antibacterial activity against penicillin G susceptible Staphylococcus aureus
[17] = tested on: Streptococcus pneumoniae; test: Antibacterial activity against Streptococcus pneumoniae; conditions: Streptococcus pneumoniae; read-out: MIC
[18] = tested on: Serratia marcescens; test: Antibacterial activity against Serratia marcescens SE3
[19] = tested on: Streptococcus pyogenes; test: Antibacterial activity against Streptococcus pyogenes; conditions: Streptococcus pyogenes; read-out: MIC
[20] = tested on: Enterococcus faecium; test: Antibacterial activity against Enterococcus faecium; conditions: Enterococcus faecium; read-out: MIC
[21] = Enterobacter cloacae, read-out: MIC
[22] = Escherichia coli, read-out: MIC
[23] = Klebsiella pneumoniae, read-out: MIC
[24] = Pseudomonas aeruginosa, read-out: ED50
[25] = Staphylococcus aureus, read-out: ED50
[26] = Escherichia coli, read-out: ED50
[27] = Pseudomonas aeruginosa, read-out: MIC
[28] = Staphylococcus aureus, read-out: MIC
[29] = Serratia marcescens, read-out: MIC

Row | SMILES | MIC [1, 21] [µg/mL] | MIC [2, 22] [µg/mL] | MIC [3, 21] [µg/mL] | MIC [4, 22] [µg/mL] | MIC [5, 23] [µg/mL] | MIC [6, 23] [µg/mL] | ED50 [7, 24] [mg/kg] | ED50 [8, 25] [mg/kg] | ED50 [9, 26] [mg/kg] | MIC [10] [µg/mL] | MIC [11, 27] [µg/mL] | MIC [12, 28] [µg/mL] | MIC [13, 27] [µg/mL] | MIC [14, 27] [µg/mL] | MIC [15, 28] [µg/mL] | MIC [16, 28] [µg/mL] | MIC [17] [µg/mL] | MIC [18, 29] [µg/mL] | MIC [19] [µg/mL] | MIC [20] [µg/mL] | other results
1 | CO/N=C(\C(=O)N[C@@H]1C(=O)N2C(C(=O)[O-])=C(C[n+]3cccc4cc(O)ccc43)CS[C@H]12)c1csc(N)n1 | 16 (≈ 29.6 µM) | 0.03 (≈ 0.0555 µM) | 0.5 (≈ 0.925 µM) | 0.03 (≈ 0.0555 µM) | 4 (≈ 7.4 µM) | < 0.008 | 29 | 1 | 0.04 | 0.03 (≈ 0.0555 µM) | 8 (≈ 14.8 µM) | 1 (≈ 1.85 µM) | 8 (≈ 14.8 µM) | 8 (≈ 14.8 µM) | 2 (≈ 3.7 µM) | 1 (≈ 1.85 µM) | < 0.008 | 0.5 (≈ 0.925 µM) | < 0.008 | 128 (≈ 237 µM) | 
2 | CO/N=C(\C(=O)N[C@@H]1C(=O)N2C(C(=O)[O-])=C(C[n+]3ccc(CC(=O)NO)cc3)CS[C@H]12)c1csc(N)n1 (stereo in doubt; 12) |  |  |  |  |  |  |  |  |  |  |  |  |  |  |  |  |  |  |  |  | MIC [1]: >128 µg/mL; MIC [2]: 0.06 µg/mL (≈ 0.11 µM); MIC [3]: 4 µg/mL (≈ 7.3 µM); MIC [4]: 0.125 µg/mL (≈ 0.228 µM); MIC [5]: 32 µg/mL (≈ 58.4 µM); MIC [6]: 0.06 µg/mL (≈ 0.11 µM); ED50 [7]: 8.6 mg/kg; ED50 [8]: 5.3 mg/kg; ED50 [9]: <0.16 mg/kg; MIC [12]: 4 µg/mL (≈ 7.3 µM); MIC [13]: 4 µg/mL (≈ 7.3 µM); MIC [14]: 8 µg/mL (≈ 14.6 µM); MIC [15]: 8 µg/mL (≈ 14.6 µM)
3 | CO/N=C(\C(=O)N[C@@H]1C(=O)N2C(C(=O)[O-])=C(C[n+]3ccc4c(O)cccc4c3)CS[C@H]12)c1csc(N)n1 | 16 (≈ 29.6 µM) | 0.015 (≈ 0.0277 µM) | 0.125 (≈ 0.231 µM) | 0.03 (≈ 0.0555 µM) | 8 (≈ 14.8 µM) | < 0.008 | > 50 | 2 | < 0.03 | 0.015 (≈ 0.0277 µM) | 8 (≈ 14.8 µM) | 1 (≈ 1.85 µM) | 8 (≈ 14.8 µM) | 8 (≈ 14.8 µM) | 2 (≈ 3.7 µM) | 1 (≈ 1.85 µM) | 0.05 (≈ 0.0925 µM) | 0.25 (≈ 0.462 µM) | < 0.008 | 128 (≈ 237 µM) | 
4 | CO/N=C(\C(=O)N[C@@H]1C(=O)N2C(C(=O)[O-])=C(C[n+]3ccc(CC(=O)NO)cc3)CS[C@H]12)c1csc(N)n1 (stereo in doubt; 13) |  |  |  |  |  |  |  |  |  |  |  |  |  |  |  |  |  |  |  |  | MIC [1]: 128 µg/mL (≈ 234 µM); ED50 [7]: 31 mg/kg; ED50 [8]: >10 mg/kg; ED50 [9]: 0.05 mg/kg; MIC [11]: 64 µg/mL (≈ 117 µM); MIC [12]: 8 µg/mL (≈ 14.6 µM); MIC [13]: 16 µg/mL (≈ 29.2 µM)
5 | CO/N=C(\C(=O)N[C@@H]1C(=O)N2C(C(=O)[O-])=C(C[n+]3cccc(S(=O)(=O)O)c3)CS[C@H]12)c1csc(N)n1 | > 128 | 0.06 (≈ 0.108 µM) | 0.5 (≈ 0.902 µM) | 0.5 (≈ 0.902 µM) | 64 (≈ 115 µM) | 0.125 (≈ 0.225 µM) | 41.6 | > 10 | 0.08 | 0.06 (≈ 0.108 µM) | 64 (≈ 115 µM) | 4 (≈ 7.21 µM) | 8 (≈ 14.4 µM) | 32 (≈ 57.7 µM) | 8 (≈ 14.4 µM) | 4 (≈ 7.21 µM) | 0.06 (≈ 0.108 µM) | 0.25 (≈ 0.451 µM) | 0.06 (≈ 0.108 µM) | > 128 | 
6 | CO/N=C(\C(=O)N[C@@H]1C(=O)N2C(C(=O)[O-])=C(C[n+]3cccc(CC(=O)O)c3)CS[C@H]12)c1csc(N)n1 (stereo in doubt; 14) |  |  | 0.25 (≈ 0.469 µM) | 0.06 (≈ 0.113 µM) |  |  | 20 |  | 0.09 | 0.06 (≈ 0.113 µM) | 8 (≈ 15 µM) |  |  |  |  |  | 0.015 (≈ 0.0282 µM) |  | 0.015 (≈ 0.0282 µM) | > 128 | MIC [1]: 16 µg/mL (≈ 30 µM); MIC [2]: 0.06 µg/mL (≈ 0.113 µM); MIC [5]: 16 µg/mL (≈ 30 µM); MIC [6]: 0.03 µg/mL (≈ 0.0563 µM); ED50 [8]: 1.4 mg/kg; MIC [12]: 1 µg/mL (≈ 1.88 µM); MIC [13]: 2 µg/mL (≈ 3.76 µM); MIC [14]: 8 µg/mL (≈ 15 µM); MIC [15]: 2 µg/mL (≈ 3.76 µM); MIC [16]: 1 µg/mL (≈ 1.88 µM); MIC [18]: 0.125 µg/mL (≈ 0.235 µM)
7 | CO/N=C(\C(=O)N[C@@H]1C(=O)N2C(C(=O)[O-])=C(C[n+]3cccc(Cl)c3)CS[C@H]12)c1csc(N)n1 | 8 (≈ 15.7 µM) | 0.06 (≈ 0.118 µM) | 0.25 (≈ 0.491 µM) | 0.06 (≈ 0.118 µM) | 16 (≈ 31.4 µM) | 0.06 (≈ 0.118 µM) | > 50 | 1.6 | 0.14 | 0.06 (≈ 0.118 µM) | 8 (≈ 15.7 µM) | 1 (≈ 1.96 µM) | 2 (≈ 3.93 µM) | 4 (≈ 7.86 µM) | 2 (≈ 3.93 µM) | 1 (≈ 1.96 µM) | 0.015 (≈ 0.0295 µM) | 0.06 (≈ 0.118 µM) | < 0.008 | > 128 | 
8 | CO/N=C(\C(=O)N[C@@H]1C(=O)N2C(C(=O)[O-])=C(C[n+]3ccccc3C)CS[C@H]12)c1csc(N)n1 | 128 (≈ 262 µM) | 0.25 (≈ 0.512 µM) | 2 (≈ 4.09 µM) | 0.5 (≈ 1.02 µM) | 32 (≈ 65.5 µM) | 0.25 (≈ 0.512 µM) | 12 | 2.7 | < 0.16 | 0.06 (≈ 0.123 µM) | 64 (≈ 131 µM) | 2 (≈ 4.09 µM) | 32 (≈ 65.5 µM) | 64 (≈ 131 µM) | 16 (≈ 32.7 µM) | 16 (≈ 32.7 µM) | 0.5 (≈ 1.02 µM) | 1 (≈ 2.05 µM) | 0.25 (≈ 0.512 µM) | > 128 | 
